Reference: ChEMBL document CHEMBL5260799, “Pterocarpan scaffold: A natural lead molecule with diverse pharmacological properties” (Eur J Med Chem, 2017)
pEC50, pIC50: −log10 of the molar value. In brackets after ≈: the same amount, converted by molar mass.

What was measured:
MCF7 = experiment: Antiproliferative activity against human MCF7 cells assessed as inhibition of cell proliferation incubated for 72 hrs by MTT assay; assay type: functional, cell-based; settings: MCF7, 72 h
[1] = Inhibition of melanin in human melanocyte; assay type: functional, cell-based
[2] = Cytotoxicity against mouse RAW264.7 cells assessed as increase in NO production measured after 48 hrs by MTT assay; assay type: toxicity, cell-based
[3] = Cytotoxicity against mouse N9 cells assessed as reduction in cell viability incubated for 48 hrs by MTT assay; assay type: toxicity, cell-based
A2780 = experiment: Antiproliferative activity against human A2780 cells assessed as reduction in cell viability incubated for 96 hrs by MTT assay; assay type: functional, cell-based; settings: A2780, 96 h
K562 = experiment: Cytotoxicity activity against human K562 cells assessed as reduction in cell viability […] measured after 72 hrs by MTT assay; assay type: functional, cell-based; settings: K562, 72 h
[4] = Cytotoxicity activity against human Lucena 1 cells assessed as reduction in cell viability […] measured after 72 hrs by MTT assay; assay type: functional, cell-based; settings: Lucena 1, 72 h
KB [5] = experiment: Antiproliferative activity against human KB cells assessed as reduction in cell viability after 72 hrs by SRB assay; assay type: functional
J774.A1 [6] = experiment: Anti-inflammatory activity against mouse J774.A 1 macrophage assessed as reduction in LPS-induced TNFalpha expression by RT-PCR analysis; assay type: functional; design: scale not given: the % may be the effect or the level left
J774.A1 [7] = experiment: Anti-inflammatory activity against mouse J774.A 1 macrophage assessed as reduction in LPS-induced IL-6 expression by RT-PCR analysis; assay type: functional; design: scale not given: the % may be the effect or the level left
Plasmodium falciparum [8] = experiment: Antiplasmodial activity against Plasmodium falciparum K1 assessed as reduction in parasite growth by fluorescence based assay; assay type: functional, organism-based
[9] = tested on: Mycobacterium tuberculosis; experiment: Antimycobacterial activity against Mycobacterium tuberculosis H37Rv assessed as inhibition of bacterial growth by Microplate alamar blue assay; assay type: functional, organism-based
KB [10] = experiment: Cytotoxicity against human KB cells assessed as reduction in cell viability by colorimetric assay; assay type: functional, cell-based
Breast carcinoma cell = experiment: Cytotoxicity against human Breast carcinoma cell assessed as reduction in cell viability by colorimetric assay; assay type: functional, cell-based
Streptococcus agalactiae = experiment: Antibacterial activity against Streptococcus agalactiae ATCC 12386 assessed as reduction in bacterial growth by microbroth dilution method; assay type: functional
RAW264.7 = experiment: Antiinflammatory activity in mouse RAW264.7 cells assessed as inhibition of LPS-induced NO production at 50 uM measured after 24 hrs by Griess method; assay type: functional, cell-based; settings: RAW264.7, 24 h
Mus musculus = organism: Mus musculus; experiment: Reduction in hepatic steatosis in HFD-induced C57BL/6J mouse model assessed as reduction in serum LDL level […]; assay type: functional, organism-based
CCRF-CEM = experiment: Cytotoxicity against human CCRF-CEM cells assessed as reduction in cell viability incubated for 72 hrs by MTT assay; assay type: functional, cell-based
[11] = target: Prostaglandin G/H synthase 1 (Homo sapiens, UniProt P23219); experiment: Inhibition of COX-1 (unknown origin)
[12] = Antiinflammatory activity against mouse primary bone marrow derived macrophages assessed as inhibition of COX-2 at 100 ug/ml; assay type: functional, BMDM; design: scale not given: the % may be the effect or the level left; settings: dose 100 µg/ml
Staphylococcus aureus [13] = experiment: Antibacterial activity against methicillin-resistant Staphylococcus aureus assessed as bacterial growth inhibition; assay type: functional, organism-based
Staphylococcus aureus [14] = experiment: Antibacterial activity against methicillin-resitant Staphylococcus aureus N1 assessed as reduction in bacterial growth by microbroth dilution method; assay type: functional
BMDC = experiment: Anti-inflammatory activity against LPS-induced C57BL/6 mouse BMDC cells assessed as inhibition of IL-12 production at 25 uM by ELISA method; assay type: functional; design: scale not given: the % may be the effect or the level left
Plasmodium falciparum [15] = experiment: Antiplasmodial activity against Plasmodium falciparum W2 assessed as reduction in plasmodial growth after 48 hrs by fluorescence based analysis; assay type: functional, organism-based; settings: W2, 48 h
Plasmodium falciparum [16] = experiment: Antiplasmodial activity against Plasmodium falciparum D6 assessed as reduction in plasmodial growth after 48 hrs by fluorescence based analysis; assay type: functional, organism-based; settings: D6, 48 h
HeLa = experiment: Cytotoxicity against human HeLa cells assessed as reduction in cell proliferation incubated for 24 hrs by MTT assay; assay type: functional, cell-based
DLD-1 = experiment: Cytotoxicity against human DLD-1 cells assessed as reduction in cell proliferation incubated for 24 hrs by MTT assay; assay type: functional, cell-based; settings: DLD-1, 24 h

Sequence of Prostaglandin G/H synthase 1 (P23219 whole entry): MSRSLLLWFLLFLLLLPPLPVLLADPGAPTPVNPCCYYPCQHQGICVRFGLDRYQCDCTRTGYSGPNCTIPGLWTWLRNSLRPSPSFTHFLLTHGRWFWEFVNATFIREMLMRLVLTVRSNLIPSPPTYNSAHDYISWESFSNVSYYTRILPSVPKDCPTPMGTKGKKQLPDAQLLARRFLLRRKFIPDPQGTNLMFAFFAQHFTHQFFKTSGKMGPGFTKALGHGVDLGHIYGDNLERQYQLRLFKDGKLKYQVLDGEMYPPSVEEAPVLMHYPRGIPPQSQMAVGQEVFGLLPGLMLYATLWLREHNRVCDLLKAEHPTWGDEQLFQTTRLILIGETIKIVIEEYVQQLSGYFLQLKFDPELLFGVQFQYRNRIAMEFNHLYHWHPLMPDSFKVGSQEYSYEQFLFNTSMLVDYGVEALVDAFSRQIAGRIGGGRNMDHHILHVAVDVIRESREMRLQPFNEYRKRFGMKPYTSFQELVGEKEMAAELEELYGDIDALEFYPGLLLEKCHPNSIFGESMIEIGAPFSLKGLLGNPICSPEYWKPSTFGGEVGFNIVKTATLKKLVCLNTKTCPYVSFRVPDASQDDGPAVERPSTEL

SMILES: COc1cc2c(cc1OCc1ccccc1)OC1C2COC2C(=O)c3ccccc3C(=O)C21 (stereo not drawn)
- pIC50 (MCF7): 4.56

SMILES: COc1c(O)cc2c(c1CC=C(C)C)O[C@H]1c3ccc(O)cc3OC[C@@H]21
- pIC50 [1]: 5.84

SMILES: C=C(C)/C(C)=C/c1c(O)ccc2c1O[C@H]1c3ccc(O)cc3OC[C@@H]21
- IC50 at 48 h [2]: 23 µM
- IC50 at 48 h [3]: 9.4 µM

SMILES: COc1cc2c(cc1OCc1ccccc1)C1COC3C(=O)c4ccccc4C(=O)C3C1O2 (stereo not drawn)
- pIC50 (MCF7): < 4.00

SMILES: C=C(CO)[C@H]1Cc2cc3c(cc2O1)OC[C@H]1c2cc4c(cc2O[C@@H]31)OCO4
- pIC50 (A2780): < 4.26

SMILES: COc1cc2c(cc1O)O[C@@H]1C3=C(OC[C@H]21)C(=O)c1ccccc1C3=O
- pIC50 (K562): 5.35
- pIC50 [4]: 5.35

SMILES: CC(C)=CC[C@]12COc3c(cc(O)c4c3C=CC(C)(C)O4)[C@H]1Oc1cc3c(cc12)OCO3
- Activity (KB [5]): 56%

SMILES: O=C1C2=C(C(=O)c3ccccc31)[C@H]1Oc3cc4c(cc3[C@H]1CO2)OCO4
- pIC50 (K562): 5.33
- pIC50 [4]: 5.26

SMILES: OC[C@H]1O[C@H](Oc2ccc3c(c2)OCC2c4cc5c(cc4OC32)OCO5)[C@H](O)[C@@H](O)[C@@H]1O (stereo partly drawn)
- Activity (J774.A1 [6]): 25%
- Activity (J774.A1 [7]): 25%

SMILES: CC(C)=CCc1cc2c(cc1O)OC[C@H]1c3ccc(O)c(CC=C(C)C)c3O[C@@H]21 [ERYBRAEDIN C]
- IC50 (Plasmodium falciparum [8]): 5.5 µg/mL (≈ 14 µM)
- IC50 [9]: 50 µg/mL (≈ 127 µM)
- IC50 (KB [10]): 5.1 µg/mL (≈ 13 µM)
- IC50 (Breast carcinoma cell): 2.9 µg/mL (≈ 7.39 µM)
- MIC (Streptococcus agalactiae): 0.78 µg/mL (≈ 1.99 µM)

SMILES: COc1ccc2c(c1)OC[C@H]1c3cc(O)c(OC)c(CC=C(C)C)c3O[C@@H]21 [LESPEFLORIN G8]
- pIC50 [1]: 5.79

SMILES: O=C1c2ccccc2C(=O)C2C1OCC1c3cc(OCc4ccccc4)c(OCc4ccccc4)cc3OC12 (stereo not drawn)
- pIC50 (MCF7): < 4.00

SMILES: COc1cc2c(cc1O)[C@H]1COC3=C(C(=O)c4ccccc4C3=O)[C@H]1O2
- pIC50 [4]: 5.59

SMILES: COc1ccc2c(c1OC)O[C@H]1c3ccc(O[C@H]4O[C@H](CO)[C@@H](O)[C@H](O)[C@H]4O)cc3OC[C@@H]21
- pEC50 (RAW264.7): 4.83

SMILES: CC(=O)/C(C)=C/c1c(O)ccc2c1O[C@H]1c3ccc(O)cc3OC[C@@H]21
- IC50 at 48 h [2]: 19 µM

SMILES: CC(C)(O)c1cc2cc3c(cc2o1)OC[C@@]1(O)c2ccc(O)cc2O[C@@H]31
- pIC50 (Mus musculus): 4.70

SMILES: COc1ccc2c(c1CC=C(C)C)O[C@H]1c3ccc(O)cc3OC[C@@]21O [ERYTHRABYSSIN I]
- pIC50 (CCRF-CEM): 5.47

SMILES: CC(C)=CCc1c(O)c(C)cc2c1O[C@H]1c3cc4c(cc3OC[C@@H]21)OC(C)(C)C=C4 [LESPECYRTIN E5]
- pIC50 [1]: 5.82

SMILES: CC(C)=CCc1cc2c(cc1O)OC[C@H]1c3c4c(c(O)c(CC=C(C)C)c3O[C@@H]21)OC(C)(C)CC4
- pIC50 [1]: 6.40

SMILES: COc1ccc2c(c1O)OC1c3ccc(O)c(OC)c3OCC21 (stereo not drawn)
- pIC50 [11]: 4.52
- Activity [12]: 52.5%

SMILES: CC(C)=CCc1cc2c(cc1O)OCc1c-2oc2c(CC=C(C)C)c(O)ccc12 [ERYCRYSTAGALLIN]
- IC50 (Staphylococcus aureus [13]): 6.25 µg/mL (≈ 16 µM)
- MIC (Staphylococcus aureus [14]): 0.78 µg/mL (≈ 2 µM)

SMILES: COc1ccc2c(c1OC)OC1c3ccc(O)cc3OCC21 (stereo not drawn)
- Activity (BMDC): 45%

SMILES: CC1(C)C=Cc2cc3c(cc2O1)OCC1c2ccc(O)cc2OC31 (stereo not drawn)
- pIC50 (Plasmodium falciparum [15]): 4.77
- pIC50 (Plasmodium falciparum [16]): 4.71

SMILES: C=C/C(C)=C/c1c(O)ccc2c1OC[C@H]1c3cc(C)c(O)c(CC=C(C)C)c3O[C@@H]21
- pIC50 [1]: 5.82

SMILES: COc1cc2c(cc1O)OC1C2COC2C(=O)c3ccccc3C(=O)C21 (stereo not drawn)
- pIC50 (MCF7): 5.28

SMILES: COc1cc2c(cc1O)[C@@H]1Oc3c(cc(OC)c(OC)c3O)[C@@H]1CO2 [BRANDISIANIN F]
- pIC50 (HeLa): < 4.60
- pIC50 (DLD-1): < 4.60
